This note sets out measurements from ChEMBL document CHEMBL1148120, “New cytotoxic 6,7-cis and 6,7-trans configured guaianolides from Warionia saharae” (J Nat Prod, 2002).

In brackets after ≈: the same amount, converted by molar mass.

The test system of this assay is KB. The assay can be described thus: Cytotoxicity against human KB cells. It counts as functional, cell-based.
`C=C1C(=O)O[C@H]2[C@H]1CC=C(C)[C@]1(O)C[C@H]3O[C@@]3(C)[C@H]21`: inhibition was half-maximal at 1.7 µg/mL (≈ 6.48 µM) (IC50).

Regarding `C=C1C(=O)O[C@H]2[C@H]1CCC(=C)[C@]1(O)C[C@H]3O[C@@]3(C)[C@H]21`, it took 2 µg/mL (≈ 7.62 µM) to reach half-maximal inhibition (IC50). For `C=C1C(=O)O[C@@H]2[C@H]1CCC(C)=C1[C@H]3O[C@](C)([C@H]3OC(=O)C(C)CC)[C@@H]12` (stereo partly drawn) [3BETA-O-(2-METHYLBUTYRYL)MOROCCOLIDE A], half-maximal inhibition (IC50) required 1 µg/mL (≈ 2.89 µM).

As for `C=C1C(=O)O[C@@H]2[C@H]1CCC(C)=C1[C@H]3O[C@](C)([C@H]3O)[C@@H]12` [MOROCCOLIDE A], half-maximal inhibition (IC50) required 4.5 µg/mL (≈ 17.2 µM).

Take `C=C1C(=O)O[C@H]2[C@@H]3[C@@](O)(C(C)=CC[C@@H]12)[C@@H]1C[C@@]3(C)O1` [SAHARANOLIDE A]: the midpoint of inhibition, the IC50, lay at 3.3 µg/mL (≈ 12.6 µM). `C=C1C(=O)O[C@H]2[C@@H]3[C@@](O)(C(=C)CC[C@@H]12)[C@@H]1C[C@@]3(C)O1` [SAHARANOLIDE B]: the IC50 (usually the concentration that inhibits the measured activity by half) was determined as 5.5 µg/mL (≈ 21 µM).
